Measured values taken from ChEMBL document CHEMBL1201862, “PubChem BioAssay data set” (2004).
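96-well plates; 48 h exposure; 5 concentrations. Endpoints by linear interpolation between flanking doses. Not reached: highest tested concentration assigned. Here, GI50 denotes the concentration required for 50% inhibition of growth.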 Active and inactive are the calls of the source. Rule as the data show it: active = GI50 up to about 1.1 µM and inactive = higher.

What was measured:
Test in all cases: inhibition of tumour cell growth, NCI panel, 48 h
786-0 = system: 786-0
A498 = system: A498
A549 = system: A549
ACHN = system: ACHN
CAKI-1 = system: CAKI-1
CCRF-CEM = system: CCRF-CEM
COLO 205 = system: COLO 205
DMS-114 = system: DMS-114
DMS-273 = system: DMS-273
EKVX = system: EKVX
HCC 2998 = system: HCC 2998
HCT-116 = system: HCT-116
HCT-15 = system: HCT-15
HL-60 = system: HL-60
HOP-18 = system: HOP-18
HOP-62 = system: HOP-62
IGROV-1 = system: IGROV-1
K562 = system: K562
KM-20L2 = system: KM-20L2
KM12 = system: KM12
LXFL 529 = system: LXFL 529
M14 = system: M14
M19-MEL = system: M19-MEL
MOLT-4 = system: MOLT-4
Malme-3M = system: Malme-3M
NCI-H226 = system: NCI-H226
NCI-H460 = system: NCI-H460
NCI-H522 = system: NCI-H522
OVCAR-3 = system: OVCAR-3
OVCAR-4 = system: OVCAR-4
OVCAR-8 = system: OVCAR-8
RPMI-8226 = system: RPMI-8226
RXF 393 = system: RXF 393
RXF 631 = system: RXF 631
SF-268 = system: SF-268
SF-539 = system: SF-539
SK-MEL-28 = system: SK-MEL-28
SK-MEL-2 = system: SK-MEL-2
SK-MEL-5 = system: SK-MEL-5
SK-OV-3 = system: SK-OV-3
SN12C = system: SN12C
SNB-19 = system: SNB-19
SNB-75 = system: SNB-75
SNB-78 = system: SNB-78
SR = system: SR
SW-620 = system: SW-620
TK-10 = system: TK-10
U-251 = system: U-251
UACC-257 = system: UACC-257
UACC-62 = system: UACC-62
UO-31 = system: UO-31
BT-549 = system: BT-549
DLD-1 = system: DLD-1
DU-145 = system: DU-145
HOP-92 = system: HOP-92
HT-29 = system: HT-29
Hs-578T = system: Hs-578T
LOX IMVI = system: LOX IMVI
MCF7 = system: MCF7
MDA-MB-231 = system: MDA-MB-231
MDA-MB-435 = system: MDA-MB-435
MDA-N = system: MDA-N
NCI-H23 = system: NCI-H23
NCI/ADR-RES = system: NCI/ADR-RES
OVCAR-5 = system: OVCAR-5
PC-3 = system: PC-3
SF-295 = system: SF-295
T47D = system: T47D
XF498 = system: XF498

## CC(C)[C@@H](C)CC[C@@H](C)C1CC=C2[C@@H]3CCC4C[C@@H](O[Si](C)(C)C(C)(C)C)CC[C@]4(C)C3CC[C@@]21C (some centres undefined)
786-0
  GI50: > 100 µM (inactive)
A498
  GI50: > 100 µM (inactive)
A549
  GI50: > 100 µM (inactive)
ACHN
  GI50: > 100 µM (inactive)
CAKI-1
  GI50: > 100 µM (inactive)
CCRF-CEM
  GI50: > 100 µM (inactive)
COLO 205
  GI50: > 100 µM (inactive)
DMS-114
  GI50: > 100 µM (inactive)
DMS-273
  GI50: > 100 µM (inactive)
EKVX
  GI50: > 100 µM (inactive)
HCC 2998
  GI50: > 100 µM (inactive)
HCT-116
  GI50: > 100 µM (inactive)
HCT-15
  GI50: > 100 µM
HL-60
  GI50: > 100 µM (inactive)
HOP-18
  GI50: > 100 µM (inactive)
HOP-62
  GI50: > 100 µM (inactive)
IGROV-1
  GI50: > 100 µM (inactive)
K562
  GI50: > 100 µM (inactive)
KM-20L2
  GI50: > 100 µM (inactive)
KM12
  GI50: > 100 µM (inactive)
LXFL 529
  GI50: > 100 µM (inactive)
M14
  GI50: > 100 µM (inactive)
M19-MEL
  GI50: > 100 µM (inactive)
MOLT-4
  GI50: > 100 µM (inactive)
Malme-3M
  GI50: > 100 µM (inactive)
NCI-H226
  GI50: > 100 µM (inactive)
NCI-H460
  GI50: > 100 µM (inactive)
NCI-H522
  GI50: > 100 µM (inactive)
OVCAR-3
  GI50: > 100 µM (inactive)
OVCAR-4
  GI50: > 100 µM (inactive)
OVCAR-8
  GI50: > 100 µM (inactive)
RPMI-8226
  GI50: > 100 µM (inactive)
RXF 393
  GI50: > 100 µM (inactive)
RXF 631
  GI50: > 100 µM (inactive)
SF-268
  GI50: > 100 µM (inactive)
SF-539
  GI50: > 100 µM (inactive)
SK-MEL-28
  GI50: > 100 µM (inactive)
SK-MEL-2
  GI50: > 100 µM (inactive)
SK-MEL-5
  GI50: > 100 µM (inactive)
SK-OV-3
  GI50: > 100 µM (inactive)
SN12C
  GI50: > 100 µM (inactive)
SNB-19
  GI50: > 100 µM (inactive)
SNB-75
  GI50: > 100 µM (inactive)
SNB-78
  GI50: > 100 µM (inactive)
SR
  GI50: > 100 µM (inactive)
SW-620
  GI50: > 100 µM (inactive)
TK-10
  GI50: > 100 µM (inactive)
U-251
  GI50: > 100 µM (inactive)
UACC-257
  GI50: > 100 µM (inactive)
UACC-62
  GI50: > 100 µM (inactive)
UO-31
  GI50: > 100 µM (inactive)

## O=[N+]([O-])c1ccccc1S(=O)(=O)c1ccccc1[N+](=O)[O-]
786-0
  GI50: 64.6 µM (inactive)
A498
  GI50: > 87.7 µM (inactive)
A549
  GI50: > 56.2 µM (inactive)
ACHN
  GI50: > 90.8 µM (inactive)
BT-549
  GI50: 65.9 µM (inactive)
CAKI-1
  GI50: > 100 µM (inactive)
CCRF-CEM
  GI50: > 100 µM (inactive)
COLO 205
  GI50: > 100 µM (inactive)
DLD-1
  GI50: > 100 µM (inactive)
DMS-114
  GI50: > 90.2 µM (inactive)
DMS-273
  GI50: > 100 µM (inactive)
DU-145
  GI50: > 100 µM (inactive)
EKVX
  GI50: > 56.2 µM (inactive)
HCC 2998
  GI50: > 100 µM (inactive)
HCT-116
  GI50: > 100 µM (inactive)
HCT-15
  GI50: > 100 µM
HL-60
  GI50: > 100 µM (inactive)
HOP-18
  GI50: > 83.2 µM (inactive)
HOP-62
  GI50: 34.9 µM (inactive)
HOP-92
  GI50: 32.4 µM (inactive)
HT-29
  GI50: > 100 µM (inactive)
Hs-578T
  GI50: 32.4 µM (inactive)
IGROV-1
  GI50: > 84.7 µM (inactive)
K562
  GI50: > 100 µM (inactive)
KM-20L2
  GI50: > 100 µM (inactive)
KM12
  GI50: > 72.3 µM (inactive)
LOX IMVI
  GI50: > 100 µM (inactive)
LXFL 529
  GI50: > 100 µM (inactive)
M14
  GI50: > 100 µM (inactive)
M19-MEL
  GI50: > 100 µM (inactive)
MCF7
  GI50: > 100 µM (inactive)
MDA-MB-231
  GI50: > 60.7 µM (inactive)
MDA-MB-435
  GI50: > 100 µM (inactive)
MDA-N
  GI50: > 100 µM (inactive)
MOLT-4
  GI50: > 100 µM (inactive)
Malme-3M
  GI50: > 100 µM (inactive)
NCI-H226
  GI50: > 79.3 µM (inactive)
NCI-H23
  GI50: 74.5 µM (inactive)
NCI-H460
  GI50: > 100 µM (inactive)
NCI-H522
  GI50: > 67.6 µM (inactive)
NCI/ADR-RES
  GI50: > 100 µM (inactive)
OVCAR-3
  GI50: > 100 µM (inactive)
OVCAR-4
  GI50: > 100 µM (inactive)
OVCAR-5
  GI50: > 10 µM (inactive)
OVCAR-8
  GI50: > 56.2 µM (inactive)
PC-3
  GI50: > 100 µM (inactive)
RPMI-8226
  GI50: > 92.7 µM (inactive)
RXF 393
  GI50: 39.5 µM (inactive)
SF-268
  GI50: 31.7 µM (inactive)
SF-295
  GI50: 36.9 µM (inactive)
SF-539
  GI50: 54.8 µM (inactive)
SK-MEL-28
  GI50: > 100 µM (inactive)
SK-MEL-2
  GI50: > 100 µM (inactive)
SK-MEL-5
  GI50: > 56.2 µM (inactive)
SK-OV-3
  GI50: > 90.8 µM (inactive)
SN12C
  GI50: > 100 µM (inactive)
SNB-19
  GI50: 56.8 µM (inactive)
SNB-75
  GI50: 21 µM (inactive)
SNB-78
  GI50: 16.4 µM (inactive)
SR
  GI50: > 100 µM (inactive)
SW-620
  GI50: > 56.2 µM (inactive)
T47D
  GI50: > 100 µM (inactive)
TK-10
  GI50: 53.7 µM (inactive)
U-251
  GI50: 28.9 µM (inactive)
UACC-257
  GI50: > 100 µM (inactive)
UACC-62
  GI50: > 100 µM (inactive)
UO-31
  GI50: > 82.2 µM (inactive)
XF498
  GI50: 30.7 µM (inactive)
